{"source": "PubChem BioAssay AID1508610", "about": "(The Scripps Research Institute Molecular Screening Center, 2020)", "note": "Activity calls are given as the source filed them. No rule for the calls is given here."}
{"target": "G-protein coupled receptor 151 (Homo sapiens) (UniProt Q8TDV0)", "sequence (Q8TDV0 whole entry, looked up)": "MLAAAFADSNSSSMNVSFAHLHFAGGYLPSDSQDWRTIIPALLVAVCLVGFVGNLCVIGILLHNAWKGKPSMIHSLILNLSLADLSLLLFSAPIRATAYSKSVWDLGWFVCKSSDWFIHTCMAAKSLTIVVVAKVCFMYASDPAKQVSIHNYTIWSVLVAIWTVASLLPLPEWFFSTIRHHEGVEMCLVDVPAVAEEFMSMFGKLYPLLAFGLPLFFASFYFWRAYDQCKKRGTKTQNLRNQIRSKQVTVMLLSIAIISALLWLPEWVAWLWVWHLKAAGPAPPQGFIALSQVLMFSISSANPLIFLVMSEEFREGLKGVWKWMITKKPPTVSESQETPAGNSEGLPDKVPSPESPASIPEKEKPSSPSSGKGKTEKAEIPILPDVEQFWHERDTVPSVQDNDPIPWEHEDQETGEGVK", "assay": "GPR151 activator potency, dose response, cell-based (AID 1508610)", "conditions": "cell-based GPR151 activation reporter"}
{"smiles": "O=C(Oc1ccc2cc(Br)ccc2c1)c1ccco1", "EC50": "> 25.9 µM (inactive)"}
{"smiles": "O=c1oc2cc(O)ccc2cc1-c1ccccc1", "EC50": "> 28.2 µM (inactive)"}
{"smiles": "CC1CCCC(NCc2c(C(=O)O)n(Cc3ccccc3F)c3ccccc23)C1C", "note": "(configuration not stated)", "EC50": "> 28 µM (inactive)"}
{"smiles": "C=CCOc1ccc(C(=O)N(Cc2nc(-c3ccc(OC)c(OC)c3)no2)C(C)C)cc1", "EC50": "> 28 µM (inactive)"}
{"smiles": "COCCNCCOc1ccc(C)cc1C", "EC50": "> 28 µM (inactive)"}
{"smiles": "O=C(O)C1CCCN(c2nn3cc(-c4ccc(F)cc4)nc3s2)C1", "note": "(configuration not stated)", "EC50": "> 28 µM (inactive)"}
{"smiles": "COc1ccc(-c2nnc(/C=C/c3cccs3)o2)cc1", "EC50": "> 27.6 µM (inactive)"}
{"smiles": "Cc1ccc(CNC(=O)c2c(C)cc(=O)oc2C)cc1", "EC50": "> 28 µM (inactive)"}
{"smiles": "O=C(Nc1ccc(Br)cc1)c1ccc(Br)c(S(=O)(=O)N2CCCCC2)c1", "EC50": "> 20.9 µM (inactive)"}
{"smiles": "CC(C)Cn1c(-c2nn(C)cc2Cl)n[nH]c1=S", "EC50": "> 28 µM (inactive)"}
{"smiles": "C=CCN1C(=O)CS/C1=N\\NC(=O)c1ccccc1", "EC50": "> 28.5 µM (inactive)"}
{"smiles": "Cc1ccc(Nc2nc(N(C)C)nc3c2cnn3C)cc1C", "EC50": "> 28.4 µM (inactive)"}
{"smiles": "COc1ccc(C(=O)N/N=C/c2ccc(O)cc2O)cc1OC", "EC50": "> 28 µM (inactive)"}
{"smiles": "COc1ccc(NC(=O)C2C3CCC(C3=C(C)C)C2C(=O)O)cc1", "note": "(configuration not stated)", "EC50": "> 28 µM (inactive)"}
{"smiles": "COC(=O)c1c(NC(=O)/C=C\\C(=O)O)sc(C)c1C", "EC50": "> 28 µM (inactive)"}
{"smiles": "Cc1ccc(-c2cnn(-c3ccc(C(=O)O)cc3)c2)cc1", "EC50": "> 28 µM (inactive)"}
{"smiles": "CCC(C)OC(=O)C1=C(C)NC2=C(C(=O)CC(c3ccc(OC)cc3)C2)C1c1cc(OC)c(OC)cc1Br", "note": "(configuration not stated)", "EC50": "> 22.4 µM (inactive)"}
{"smiles": "COc1cccc(NC(=O)n2ncc3c(C)cccc32)c1", "EC50": "> 28 µM (inactive)"}
{"smiles": "COc1ccccc1Cn1c(=S)[nH]c2cc(C(=O)N3CCC(C(N)=O)(N4CCCCC4)CC3)ccc2c1=O", "EC50": "inactive"}
{"smiles": "COC(=O)c1ccc(Nc2ncnc3c2cnn3-c2ccc(C)cc2C)cc1", "EC50": "0.00158 µM"}
{"smiles": "CCOCC(=O)NC12CC3CC(CC(C3)C1)C2", "EC50": "> 44.2 µM (inactive)"}
{"smiles": "COc1ccc(Cl)cc1NC(=O)Nc1cccc([N+](=O)[O-])c1C", "EC50": "> 28 µM (inactive)"}
{"smiles": "COc1cc(OC)cc(C(=O)NC2CCCCCCC2)c1", "EC50": "> 39.8 µM (inactive)"}
{"smiles": "O=C(NN=C1CCCCC1)C(O)(c1ccccc1)c1ccccc1", "EC50": "> 28 µM (inactive)"}
{"smiles": "CC(C)c1ccc(Cn2ccc3c4c(N)nc(NC5CC5)nc4ccc32)cc1", "EC50": "3.86 µM"}
{"smiles": "CCC1CN(CCNC(=O)CC2CCCC2)Cc2cc(OC)ccc2O1", "note": "(configuration not stated)", "EC50": "> 28 µM (inactive)"}
{"smiles": "COc1cccc(-c2ccc(=O)n(CC(=O)Nc3ccc(Cl)c(C(F)(F)F)c3)n2)c1", "EC50": "> 28 µM (inactive)"}
{"smiles": "O=C(Nc1ncc(C(O)(C(F)(F)F)C(F)(F)F)s1)c1ccccc1Cl", "EC50": "> 30.5 µM (inactive)"}
{"smiles": "CCOc1cc(OCC)cc(C(=O)Nc2ccc(Br)cn2)c1", "EC50": "> 28 µM (inactive)"}
{"smiles": "O=C(O)c1ccc(-n2cc(-c3ccc(Cl)cc3)cn2)cc1", "EC50": "> 28 µM (inactive)"}
{"smiles": "Cc1ccc(Nc2ncnc3sc(C)c(C)c23)cc1F", "EC50": "> 31.6 µM (inactive)"}
{"smiles": "O=C(Nc1ncc([N+](=O)[O-])s1)c1ccc(Br)cc1F", "EC50": "> 27.5 µM (inactive)"}
{"smiles": "CCOCCCNC(=O)CSc1ncccc1-c1nc2cc(C)c(C)cc2[nH]1", "EC50": "> 28 µM (inactive)"}
{"smiles": "COc1ccccc1N1CCN(C(=O)c2cnc(N3CCN(c4ncccn4)CC3)c3ccccc23)CC1", "EC50": "> 20.1 µM (inactive)"}
{"smiles": "Cc1nccc2[nH]c(=O)c(C(=O)NC3CCN(Cc4ccccc4)CC3)cc12", "EC50": "> 28 µM (inactive)"}
{"smiles": "CC(C)N(CCNc1nc(N2CCC(N3CCOCC3)CC2)nc2c1ncn2C1CCCCC1)C(C)C", "EC50": "> 29.5 µM (inactive)"}
{"smiles": "COc1ccc(N2C(=O)NC3CC2(C)Oc2c(OC)cccc23)c(OC)c1", "note": "(configuration not stated)", "EC50": "> 28.7 µM (inactive)"}
{"smiles": "Cc1ccc2c(c1)N(CC(=O)Nc1ccc(Cl)cc1)C(=O)C(C)O2", "note": "(configuration not stated)", "EC50": "> 28 µM (inactive)"}
{"smiles": "COc1ccc(CCNc2ncnc3c2oc2ccccc23)cc1OC", "EC50": "> 27.6 µM (inactive)"}
{"smiles": "COc1ccc(OC)c(C(C)NC(=O)c2ccccc2Cl)c1", "note": "(configuration not stated)", "EC50": "> 28 µM (inactive)"}
{"smiles": "Cc1ccc(-c2nc(-c3ccccn3)no2)cc1", "EC50": "> 31.3 µM (inactive)"}
{"smiles": "CCN(CC)C(=O)CN(c1ccccc1)S(=O)(=O)c1ccc(C)cc1", "EC50": "> 28 µM (inactive)"}
{"smiles": "COc1ccc(C(=O)Nc2cccc(C(=O)N3CCCC3)c2)cc1", "EC50": "> 28 µM (inactive)"}
{"smiles": "O=C(Nc1nc2ccccc2s1)c1ccccc1F", "EC50": "> 31.9 µM (inactive)"}
{"smiles": "Cc1c(C(=O)Nc2cc(Sc3ccc(F)cc3)cc([N+](=O)[O-])c2)sc2ncn(Cc3ccccc3F)c(=O)c12", "EC50": "> 20.2 µM (inactive)"}
{"smiles": "COc1cc(C2CC(=O)c3c([nH]c(C(=O)OCCSC)c3C)C2)cc(OC)c1OC", "note": "(configuration not stated)", "EC50": "0.0014 µM"}
{"smiles": "COC(=O)c1ccc(Cl)cc1NC(=O)N(C(C)C)C1CCN(C(C)=O)CC1", "EC50": "> 28 µM (inactive)"}
{"smiles": "O=C(Nc1nc2cc3c(cc2s1)OCO3)C1=COCCO1", "EC50": "> 27.4 µM (inactive)"}
{"smiles": "CCOC(=O)c1c(C)c(C(=O)NCCC(C)C)c(C)n1C", "EC50": "> 28 µM (inactive)"}
{"smiles": "CN(C)/C=C1/C(=O)N(c2nc3ccccc3s2)N=C1C(F)(F)F", "EC50": "> 38.5 µM (inactive)"}
{"smiles": "O=C(NCc1ccc(F)cc1)c1cc(-c2ccccc2Cl)nc2ccccc12", "EC50": "> 32.1 µM (inactive)"}
{"smiles": "NP(=O)(Oc1ccc(Cl)cc1)Oc1ccc(Cl)cc1", "EC50": "> 28.2 µM (inactive)"}
{"smiles": "O=C(Nc1ccc(Br)cn1)c1ccc(N2CCCCC2)c([N+](=O)[O-])c1", "EC50": "> 28 µM (inactive)"}
{"smiles": "COc1ccc(N=C2SC(CC(=O)Nc3ccc(OC)cc3OC)C(=O)N2C)cc1", "note": "(configuration not stated)", "EC50": "0.00244 µM"}
{"smiles": "COc1ccc(OC(C)C(=O)Nc2cc(C)ccc2C)cc1", "note": "(configuration not stated)", "EC50": "> 32 µM (inactive)"}
{"smiles": "O=C(Nc1nc(-c2cc3ccccc3o2)cs1)c1cc2ccccc2oc1=O", "EC50": "> 24.7 µM (inactive)"}
{"smiles": "CCN(CC)c1ccc(NC(=O)/C=C\\C(=O)O)cc1", "EC50": "> 28 µM (inactive)"}
{"smiles": "Cc1ccc(CCNS(=O)(=O)c2ccc3c(c2)OCCN3C)cc1", "EC50": "> 28 µM (inactive)"}
{"smiles": "O=C(O)CN1CCN(Cc2ccc(Cl)cc2)C1=O", "EC50": "> 28 µM (inactive)"}
{"smiles": "C/C(=C\\c1ccccc1)C(=O)Nc1ccccc1C(=O)O", "EC50": "> 31.9 µM (inactive)"}
{"smiles": "CCN(CC)C(=O)c1cn(CCC#N)nc1-c1ccc(OC)c([N+](=O)[O-])c1", "EC50": "> 28 µM (inactive)"}
{"smiles": "NC(=O)C1CCN(C(=O)c2ccc3nc(N4CCCCC4)sc3c2)CC1", "EC50": "> 28 µM (inactive)"}
{"smiles": "COc1ccc(C(=O)Nc2noc3ccccc23)cc1", "EC50": "> 28 µM (inactive)"}
{"smiles": "OC(c1cccnc1)c1ccc2c(c1)CN(Cc1cccc(Cl)c1)CCO2", "note": "(configuration not stated)", "EC50": "> 28 µM (inactive)"}
{"smiles": "CCN1CCc2c(sc(NC(=O)c3ccc(S(=O)(=O)N4CCCC(C)C4)cc3)c2C(=O)OC)C1", "note": "(configuration not stated)", "EC50": "> 27.6 µM (inactive)"}
{"smiles": "Cc1cccc(C)c1-n1c(=S)sc2c(=O)n(-c3cccc(Cl)c3)c(SCC#N)nc21", "EC50": "> 21.8 µM (inactive)"}
{"smiles": "O=C(O)c1ccc(COc2cccc(CO)c2)cc1", "EC50": "> 28 µM (inactive)"}
{"smiles": "CN(C)c1cccc2c(S(=O)(=O)Nc3nccnc3-c3ccc(C=O)cc3)cccc12", "EC50": "> 28 µM (inactive)"}
{"smiles": "O=C(Nc1nc2ccccc2[nH]1)c1ccc(Cl)cc1Cl", "EC50": "> 29.3 µM (inactive)"}
{"smiles": "CCOCCOC(=O)C1=C(C)Nc2ccc(C)cc2S1", "EC50": "> 28 µM (inactive)"}
{"smiles": "CCN(CC)C(=O)Cn1cnc2sc(C(=O)Nc3cc(C)ccc3OC)c(C)c2c1=O", "EC50": "> 25.7 µM (inactive)"}
{"smiles": "CC(=O)Nc1ccc(Nc2nc(-c3ccc(C(=O)NC4CC4)cc3)nc3nc[nH]c23)cc1", "EC50": "> 27.8 µM (inactive)"}
